Assay results from ChEMBL document CHEMBL1138676, “Liver-selective glucocorticoid antagonists: a novel treatment for type 2 diabetes” (J Med Chem, 2004).

Columns and labels:
[1] = target: Estrogen receptor beta (Homo sapiens, UniProt Q92731); assay: Inhibition of human Estrogen receptor beta
[2] = target: Glucocorticoid receptor (Rattus norvegicus) (UniProt P06536); assay: Inhibition of glucocorticoid receptor mediated tyrosine amino transferase activity
[3] = target: T1, Glucocorticoid receptor (Homo sapiens, UniProt P04150); assay: Inhibition of human glucocorticoid receptor
T1 sequence (P04150 whole entry): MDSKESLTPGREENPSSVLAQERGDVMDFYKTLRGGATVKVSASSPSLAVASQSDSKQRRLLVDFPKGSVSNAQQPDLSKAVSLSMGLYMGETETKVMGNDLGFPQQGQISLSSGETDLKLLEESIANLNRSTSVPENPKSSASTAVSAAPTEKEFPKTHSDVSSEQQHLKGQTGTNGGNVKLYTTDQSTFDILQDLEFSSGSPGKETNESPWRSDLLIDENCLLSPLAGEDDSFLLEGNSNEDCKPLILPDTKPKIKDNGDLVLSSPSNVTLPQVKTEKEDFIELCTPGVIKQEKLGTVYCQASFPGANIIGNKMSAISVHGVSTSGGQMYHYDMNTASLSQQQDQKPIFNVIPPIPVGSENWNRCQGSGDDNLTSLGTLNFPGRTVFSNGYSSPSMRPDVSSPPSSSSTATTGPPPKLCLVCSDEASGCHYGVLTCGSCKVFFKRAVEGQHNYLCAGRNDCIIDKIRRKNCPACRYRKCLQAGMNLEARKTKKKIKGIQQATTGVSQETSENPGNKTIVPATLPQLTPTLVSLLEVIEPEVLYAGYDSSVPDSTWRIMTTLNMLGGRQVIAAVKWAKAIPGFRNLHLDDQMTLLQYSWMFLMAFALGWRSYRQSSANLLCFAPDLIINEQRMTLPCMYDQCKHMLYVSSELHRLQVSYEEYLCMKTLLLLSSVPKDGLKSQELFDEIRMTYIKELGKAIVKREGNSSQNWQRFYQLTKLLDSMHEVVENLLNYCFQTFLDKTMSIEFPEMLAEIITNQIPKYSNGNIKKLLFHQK

[4] = target: T2, Thyroid hormone receptor alpha (Homo sapiens, UniProt P10827); assay: Inhibition of human Thyroid hormone receptor alpha
T2 sequence (P10827 whole entry): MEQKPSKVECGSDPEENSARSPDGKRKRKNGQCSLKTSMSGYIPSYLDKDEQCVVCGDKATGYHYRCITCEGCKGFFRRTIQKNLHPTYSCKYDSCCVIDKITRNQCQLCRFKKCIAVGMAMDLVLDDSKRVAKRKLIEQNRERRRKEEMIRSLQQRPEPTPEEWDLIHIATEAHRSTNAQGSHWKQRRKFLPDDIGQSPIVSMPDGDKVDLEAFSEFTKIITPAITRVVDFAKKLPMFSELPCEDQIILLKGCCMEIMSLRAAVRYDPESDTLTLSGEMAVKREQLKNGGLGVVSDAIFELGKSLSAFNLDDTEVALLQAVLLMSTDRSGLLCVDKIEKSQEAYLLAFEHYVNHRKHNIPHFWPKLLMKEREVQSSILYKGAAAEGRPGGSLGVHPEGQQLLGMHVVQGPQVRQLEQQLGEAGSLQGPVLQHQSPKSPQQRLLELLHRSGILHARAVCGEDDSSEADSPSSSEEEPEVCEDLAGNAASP

[5] = target: T3, Thyroid hormone receptor beta (Homo sapiens, UniProt P10828); assay: Inhibition of human Thyroid hormone receptor beta
T3 sequence (P10828 whole entry): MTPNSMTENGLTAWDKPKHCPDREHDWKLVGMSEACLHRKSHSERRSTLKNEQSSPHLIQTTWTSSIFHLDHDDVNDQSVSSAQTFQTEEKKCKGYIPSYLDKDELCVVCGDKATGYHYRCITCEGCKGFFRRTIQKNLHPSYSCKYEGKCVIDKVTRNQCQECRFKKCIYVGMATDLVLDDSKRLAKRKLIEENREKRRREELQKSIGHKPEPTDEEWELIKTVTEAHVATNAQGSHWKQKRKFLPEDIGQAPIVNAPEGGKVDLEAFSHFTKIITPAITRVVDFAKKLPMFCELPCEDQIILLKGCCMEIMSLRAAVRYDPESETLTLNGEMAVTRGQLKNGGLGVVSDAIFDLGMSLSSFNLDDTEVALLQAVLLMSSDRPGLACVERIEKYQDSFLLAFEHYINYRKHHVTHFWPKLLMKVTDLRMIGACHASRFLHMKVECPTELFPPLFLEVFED

[6] = target: T1, Glucocorticoid receptor; assay: Inhibition of glucocorticoid receptor dependent alkaline phosphatase activity; format: functional
[7] = target: T4, Estrogen receptor (Homo sapiens, UniProt P03372); assay: Inhibition of human Estrogen receptor alpha
T4 sequence (P03372 whole entry): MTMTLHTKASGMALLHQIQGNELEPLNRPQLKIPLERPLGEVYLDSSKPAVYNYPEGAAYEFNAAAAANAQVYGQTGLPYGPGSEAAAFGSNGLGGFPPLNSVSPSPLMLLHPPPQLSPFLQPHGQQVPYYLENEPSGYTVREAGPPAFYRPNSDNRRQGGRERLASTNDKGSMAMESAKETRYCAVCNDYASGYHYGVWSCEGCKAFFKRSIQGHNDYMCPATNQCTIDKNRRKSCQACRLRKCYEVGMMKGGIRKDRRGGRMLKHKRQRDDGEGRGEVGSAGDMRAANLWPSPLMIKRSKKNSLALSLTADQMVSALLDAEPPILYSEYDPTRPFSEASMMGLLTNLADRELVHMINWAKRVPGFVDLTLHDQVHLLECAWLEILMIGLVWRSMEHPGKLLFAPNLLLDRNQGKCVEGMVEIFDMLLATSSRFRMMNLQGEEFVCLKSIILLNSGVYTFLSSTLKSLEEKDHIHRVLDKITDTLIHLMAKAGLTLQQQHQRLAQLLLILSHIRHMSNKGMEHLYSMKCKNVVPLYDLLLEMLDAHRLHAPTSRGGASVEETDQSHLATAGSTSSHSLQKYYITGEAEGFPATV

Sequence of Estrogen receptor beta (Q92731 whole entry): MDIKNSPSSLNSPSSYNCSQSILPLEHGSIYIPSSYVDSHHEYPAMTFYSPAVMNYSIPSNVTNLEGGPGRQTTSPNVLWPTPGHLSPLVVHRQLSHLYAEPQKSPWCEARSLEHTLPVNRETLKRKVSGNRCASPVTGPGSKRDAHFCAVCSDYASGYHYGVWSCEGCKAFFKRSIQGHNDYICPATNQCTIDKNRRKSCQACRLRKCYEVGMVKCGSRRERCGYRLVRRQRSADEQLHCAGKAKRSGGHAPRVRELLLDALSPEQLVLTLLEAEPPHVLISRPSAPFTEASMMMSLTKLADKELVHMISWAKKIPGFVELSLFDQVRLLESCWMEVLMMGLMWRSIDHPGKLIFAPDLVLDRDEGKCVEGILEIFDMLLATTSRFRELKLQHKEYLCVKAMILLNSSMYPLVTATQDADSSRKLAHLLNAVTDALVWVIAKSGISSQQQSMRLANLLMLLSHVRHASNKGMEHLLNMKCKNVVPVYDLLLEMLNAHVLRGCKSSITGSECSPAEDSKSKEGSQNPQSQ
Sequence of Glucocorticoid receptor (Rattus norvegicus) (P06536 whole entry, looked up): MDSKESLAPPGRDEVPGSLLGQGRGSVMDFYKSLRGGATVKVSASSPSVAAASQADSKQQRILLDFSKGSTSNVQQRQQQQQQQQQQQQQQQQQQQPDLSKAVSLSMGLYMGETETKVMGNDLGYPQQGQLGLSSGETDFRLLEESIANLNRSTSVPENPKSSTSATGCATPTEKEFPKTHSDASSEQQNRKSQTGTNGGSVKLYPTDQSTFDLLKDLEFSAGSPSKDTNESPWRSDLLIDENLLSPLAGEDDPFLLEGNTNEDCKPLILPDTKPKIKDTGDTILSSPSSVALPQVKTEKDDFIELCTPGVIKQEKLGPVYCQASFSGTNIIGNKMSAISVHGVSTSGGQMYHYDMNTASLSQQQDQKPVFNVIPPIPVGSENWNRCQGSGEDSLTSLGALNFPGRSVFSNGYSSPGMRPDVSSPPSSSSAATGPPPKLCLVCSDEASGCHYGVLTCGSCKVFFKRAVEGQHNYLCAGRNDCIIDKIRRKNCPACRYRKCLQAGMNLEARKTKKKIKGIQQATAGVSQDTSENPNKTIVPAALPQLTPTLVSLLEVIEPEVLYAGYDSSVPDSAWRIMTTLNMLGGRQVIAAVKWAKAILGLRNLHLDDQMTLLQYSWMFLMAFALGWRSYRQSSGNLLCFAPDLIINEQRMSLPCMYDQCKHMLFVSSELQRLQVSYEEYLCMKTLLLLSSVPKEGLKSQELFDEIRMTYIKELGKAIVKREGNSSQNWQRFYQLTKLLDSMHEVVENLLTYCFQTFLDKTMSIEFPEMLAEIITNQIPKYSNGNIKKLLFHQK

- Ki [1]: 13 nM
- Ki [2]: 60 nM
- Ki [3]: 0.27 nM
- Ki [4]: > 1250 nM
- Ki [5]: > 2250 nM
- Ki [6]: 1.2 nM
- Ki [7]: 6.2 nM
SMILES: C#C[C@]1(O)CC[C@H]2[C@@H]3CCC4=CC(=O)CCC4=C3[C@@H](c3ccc(N(C)CCCC(=O)N(C)C4CC[C@@]5(C)[C@@H](C4)C[C@@H](O)[C@@H]4[C@@H]5C[C@H](O)[C@]5(C)[C@@H]([C@H](C)CCC(=O)O)CC[C@@H]45)cc3)C[C@@]21C (some centres not stated)
